Source: patent US20230256049A1, “MATERIALS AND METHODS FOR THE PREVENTION AND TREATMENT OF VIRAL RESPIRATORY DISEASES” (priority 2020, published 2023)
Like-named read-outs stand apart in the source and are kept apart here. Where a SMILES comes first, the peptide text is derived from it. [ ]: non-standard residue; d: D form.

Columns and labels:
[1] = system: HIV-1 (primary R5 JR-CSF); assay: HIV-1 in vitro model, HeLa TZM reporter cells (alanine scan); assay type: cell-based; details: β-galactosidase at 48 h
[2] = system: SARS-CoV-2 (2019-nCoV/USA-WA1/2020 strain); details: VERO E6 (FIG. 5C)
[3] = system: SARS-CoV-2 (2019-nCoV/USA-WA1/2020 strain)
[4] = system: SARS-CoV-2; details: cited from earlier work; for treatment outcome in SARS-CoV-2 / COVID-19 patients: remdesivir: double-blind, randomized, placebo-controlled trial in hospitalized adults; for patient morbidity risk: treatment of SARS-CoV-2

With `CC[C@H](C)[C@H](NC(=O)[C@H](CC(=O)O)NC(=O)[C@H](CCCNC(=N)N)NC(=O)[C@H](CC(C)C)NC(=O)[C@H](Cc1c[nH]c2ccccc12)NC(=O)[C@@H](N)CO)C(=O)N[C@@H](Cc1c[nH]c2ccccc12)C(=O)N[C@@H](CC(=O)O)C(=O)N[C@@H](Cc1c[nH]c2ccccc12)C(=O)N[C@H](C(=O)N[C@@H](CS)C(=O)N[C@@H](CCC(=O)O)C(=O)N[C@H](C(=O)N[C@@H](CC(C)C)C(=O)N[C@@H](CO)C(=O)N[C@@H](CC(=O)O)C(=O)N[C@@H](Cc1ccccc1)C(=O)N[C@@H](CCCCN)C(=O)O)C(C)C)[C@@H](C)CC` [Peptide 346-001, SWLRDIWDWICEVLSDFK] (H-SWLRDIWDWICEVLSDFK-OH; N-terminus and C-terminus assumed) the “antiviral activity against HIV-1 (in vitro HIV-1 inhibition)” value [1] was “effective against HIV-1”, the “reduction on viral copy numbers” value ([2]; 50 μM dosing concentration) was > 5 orders of magnitude and the “reduction on viral copy numbers” value ([2]; 125 μM dosing concentration) was > 7 orders of magnitude.

With `CC[C@@H](C)[C@@H](NC(=O)[C@@H](CC(=O)O)NC(=O)[C@@H](CCCNC(=N)N)NC(=O)[C@@H](CC(C)C)NC(=O)[C@@H](Cc1c[nH]c2ccccc12)NC(=O)[C@H](N)CO)C(=O)N[C@H](Cc1c[nH]c2ccccc12)C(=O)N[C@H](CC(=O)O)C(=O)N[C@H](Cc1c[nH]c2ccccc12)C(=O)N[C@@H](C(=O)N[C@H](CS)C(=O)N[C@H](CCC(=O)O)C(=O)N[C@@H](C(=O)N[C@H](CC(C)C)C(=O)N[C@H](CO)C(=O)N[C@H](CC(=O)O)C(=O)N[C@H](Cc1ccccc1)C(=O)N[C@H](CCCCN)C(=O)O)C(C)C)[C@H](C)CC` [Peptide 346-002, swlrdiwdwicevlsdfk] (H-[dS][dW][dL][dR][dD][dI][dW][dD][dW][dI][dC][dE][dV][dL][dS][dD][dF][dK]-OH; N-terminus and C-terminus assumed) the EC50 ([3]; 2019-nCoV/USA-WA1/2020 strain, 48 h) was 13 µM.

For `CC[C@H](C)[C@H](NC(=O)[C@H](CC(C)C)NC(=O)[C@H](CC(=O)O)NC(=O)[C@@H](NC(=O)[C@H](Cc1c[nH]c2ccccc12)NC(=O)[C@H](CC(=O)O)NC(=O)[C@H](CCCNC(=N)N)NC(=O)[C@H](Cc1c[nH]c2ccccc12)NC(=O)[C@@H](NC(=O)[C@@H](N)CO)[C@@H](C)CC)C(C)C)C(=O)N[C@@H](CS)C(=O)N[C@@H](CCC(=O)O)C(=O)N[C@@H](Cc1ccccc1)C(=O)N[C@@H](CC(C)C)C(=O)N[C@@H](CO)C(=O)N[C@@H](CC(=O)O)C(=O)N[C@@H](Cc1c[nH]c2ccccc12)C(=O)N[C@@H](CCCCN)C(=O)O` [Peptide 346-007, SIWRDWVDLICEFLSDWK] (H-SIWRDWVDLICEFLSDWK-OH; N-terminus and C-terminus assumed), the “potency relative to the other peptides tested” value [3] was “ca. double the potency of the other peptides tested”.

In the case of `CCN(CC)CCCC(C)Nc1ccnc2cc(Cl)ccc12` (stereo not drawn) [chloroquine], the “treatment outcome in SARS-CoV-2 / COVID-19 patients” value [4] is listed as “failed” and the patient morbidity risk [4] is listed as “increased patient morbidity risk”.

For `CCN(CCO)CCCC(C)Nc1ccnc2cc(Cl)ccc12` (stereo not drawn) [hydroxychloroquine], the “treatment outcome in SARS-CoV-2 / COVID-19 patients” value [4] is listed as “failed” and the patient morbidity risk [4] is listed as “increased patient morbidity risk”.
